The text below walks through data of patent US10590113B2, “6-hydroxy-4-oxo-1,4-dihydropyrimidine-5-carboxamides as APJ agonists” (priority 2016, dated 2020).

The assay deals with T1, human APJ receptor (Homo sapiens, UniProt P35414).
T1 construct: expressed in transfected cells; host or cells: HEK293
T1 sequence (P35414 1-380): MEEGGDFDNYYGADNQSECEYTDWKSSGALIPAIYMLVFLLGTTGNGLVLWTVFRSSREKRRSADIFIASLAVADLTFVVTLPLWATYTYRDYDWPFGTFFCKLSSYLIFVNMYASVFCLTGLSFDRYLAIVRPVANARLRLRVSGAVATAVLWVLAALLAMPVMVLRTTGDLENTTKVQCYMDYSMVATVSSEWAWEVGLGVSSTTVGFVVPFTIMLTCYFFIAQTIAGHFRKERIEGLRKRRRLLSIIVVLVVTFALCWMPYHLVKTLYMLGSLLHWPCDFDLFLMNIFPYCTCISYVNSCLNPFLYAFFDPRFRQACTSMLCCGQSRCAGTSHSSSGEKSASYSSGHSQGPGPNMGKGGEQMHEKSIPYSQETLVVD
The assay can be described thus: Intracellular cAMP Accumulation Assay (APJ hcAMP, HTRF). It is filed as cell-based. Particulars: human APJ, intracellular cAMP accumulation; read-out: hAPJ cAMP EC50 Potency range. The method in brief:
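Stably transfected HEK293 cells (5,000/well) incubated 30 min at room temperature with serially diluted compound, […] and 2 μM forskolin. cAMP measured by HTRF after 60 min with detection reagents, quantified against a cAMP standard curve; EC50 from variable-slope sigmoidal fit of inhibition of forskolin-stimulated cAMP.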
For orientation: Time-resolved FRET reads energy transfer from a long-lived donor to a nearby acceptor.

Each structure is given as a SMILES string. pEC50: −log10 of the molar value.

As usually defined, the pEC50 is the EC50 on a negative log10 scale, so that one unit is a factor of ten. In the case of `COc1cccc(OC)c1-n1c(CCC2CC2)nc(=O)c(C(=O)N2CCC(c3ncccc3F)C2)c1O` (single isomer, unassigned) [Example 178, 2-(2-cyclopropylethyl)-1-(2,6-dimethoxyphenyl)-5-[3-(3-fluoropyridin-2-yl)pyrrolidine-1-carbonyl]-6-hydroxy-1,4-dihydropyrimidin-4-one], the pEC50 is 8.00 to 11.00. In the case of `COc1cccc(OC)c1-n1c(CCC2CC2)nc(=O)c(C(=O)N2CCC(c3ncccc3F)C2)c1O` (single isomer, unassigned) [Example 179, 2-(2-cyclopropylethyl)-1-(2,6-dimethoxyphenyl)-5-[3-(3-fluoropyridin-2-yl)pyrrolidine-1-carbonyl]-6-hydroxy-1,4-dihydropyrimidin-4-one], the negative logarithm of the EC50 (pEC50) is 8.00 to 11.00. On to `COc1cccc(OC)c1-n1c(CCC2CC2)nc(=O)c(C(=O)N2CCC(c3ncc(Cl)cc3F)C2)c1O` (single isomer, unassigned) [Example 180, 5-[3-(5-chloro-3-fluoropyridin-2-yl)pyrrolidine-1-carbonyl]-2-(2-cyclopropylethyl)-1-(2,6-dimethoxyphenyl)-6-hydroxy-1,4-dihydropyrimidin-4-one], for which the negative-log EC50 (pEC50) was 8.00 to 11.00. Regarding `CC[C@@H](c1cc(F)cc(F)c1)n1c(-c2ccn(CC)n2)nc(=O)c(C(=O)N2CCC(c3ncccc3F)C2)c1O` (single isomer, unassigned) [Example 181], the negative logarithm of the EC50 (pEC50) was 8.00 to 11.00. Turning to `CC[C@@H](c1cc(F)cc(F)c1)n1c(-c2cnn(C)c2)nc(=O)c(C(=O)N2CCC(c3ncc(F)cc3F)C2)c1O` (single isomer, unassigned) [Example 182], the negative logarithm of the EC50 (pEC50) is 8.00 to 11.00. On to `CC[C@@H](c1cc(F)cc(F)c1)n1c(-c2cnn(C)c2)nc(=O)c(C(=O)N2CCC(c3ccc(Cl)cn3)C2)c1O` (single isomer, unassigned) [Example 183], for which the pEC50 is 8.00 to 11.00. With `CC[C@@H](c1cc(F)cc(F)c1)n1c(-c2ccn(C)n2)nc(=O)c(C(=O)N2CCC(c3ncc(F)cc3F)C2)c1O` (single isomer, unassigned) [Example 184], the pEC50 is 8.00 to 11.00.

`CC[C@@H](c1cc(F)cc(F)c1)n1c(-c2ccn(C)n2)nc(=O)c(C(=O)N2CCC(c3ccc(F)cn3)C2)c1O` (single isomer, unassigned) [Example 185]: the pEC50 is 8.00 to 11.00. `CC[C@@H](c1cc(F)cc(F)c1)n1c(-c2ccn(CC)n2)nc(=O)c(C(=O)N2CCC(c3ncccc3F)C2)c1O` (single isomer, unassigned) [Example 186]: the negative-log EC50 (pEC50) is 8.00 to 11.00.

In the case of `CC[C@@H](c1cc(F)cc(F)c1)n1c(-c2cnn(C)c2)nc(=O)c(C(=O)N2CCC(c3ccc(Cl)cn3)C2)c1O` (single isomer, unassigned) [Example 187], the negative logarithm of the EC50 (pEC50) was 8.00 to 11.00. As to `CC[C@@H](c1cc(F)cc(F)c1)n1c(-c2cnn(C)c2)nc(=O)c(C(=O)N2CCC(c3ncc(F)cc3F)C2)c1O` (single isomer, unassigned) [Example 188], the pEC50 was 8.00 to 11.00. Take `CC[C@@H](c1cc(F)cc(F)c1)n1c(-c2ccn(C)n2)nc(=O)c(C(=O)N2CCC(c3ncccc3F)C2)c1O` (single isomer, unassigned) [Example 189]: the pEC50 is 8.00 to 11.00. Turning to `CC[C@@H](c1cc(F)cc(F)c1)n1c(-c2ccn(C)n2)nc(=O)c(C(=O)N2CCC(c3ccc(Cl)cn3)C2)c1O` (single isomer, unassigned) [Example 190], the pEC50 was 8.00 to 11.00.

Take `CC[C@@H](c1cc(F)cc(F)c1)n1c(-c2cnn(C)c2)nc(=O)c(C(=O)N2CCC(c3ccc(F)cn3)C2)c1O` (single isomer, unassigned) [Example 191]: the pEC50 is 8.00 to 11.00. Take `CC[C@@H](c1cc(F)cc(F)c1)n1c(-c2ccn(CC)n2)nc(=O)c(C(=O)N2CCC(c3ncc(F)cc3F)C2)c1O` (single isomer, unassigned) [Example 192]: the negative logarithm of the EC50 (pEC50) is 8.00 to 11.00.

Take `CC[C@@H](c1cc(F)cc(F)c1)n1c(-c2ccn(C)n2)nc(=O)c(C(=O)N2CCC(c3ccccc3F)C2)c1O` (single isomer, unassigned) [Example 193]: the pEC50 was 8.00 to 11.00. Regarding `CC[C@@H](c1cc(F)cc(F)c1)n1c(-c2ccn(C)n2)nc(=O)c(C(=O)N2CCC(c3ccc(F)cc3)C2)c1O` (single isomer, unassigned) [Example 194], the negative logarithm of the EC50 (pEC50) was 8.00 to 11.00. As for `CC[C@@H](c1cc(F)cc(F)c1)n1c(-c2ccn(C)n2)nc(=O)c(C(=O)N2CCC(c3ccccc3OC)C2)c1O` (single isomer, unassigned) [Example 195], the figure is 8.00 to 11.00; as for `CC[C@@H](c1cc(F)cc(F)c1)n1c(-c2cnn(C)c2)nc(=O)c(C(=O)N2CCC(c3ccccc3F)C2)c1O` (single isomer, unassigned) [Example 196], 8.00 to 11.00; as for `CC[C@@H](c1cc(F)cc(F)c1)n1c(-c2cnn(C)c2)nc(=O)c(C(=O)N2CCC(c3ccc(F)cc3)C2)c1O` (single isomer, unassigned) [Example 197], 8.00 to 11.00. `CC[C@@H](c1cc(F)cc(F)c1)n1c(-c2cnn(C)c2)nc(=O)c(C(=O)N2CCC(c3ccccc3OC)C2)c1O` (single isomer, unassigned) [Example 198]: the pEC50 was 8.00 to 11.00.

For the compound `CC[C@@H](c1cc(F)cc(F)c1)n1c(-c2ccn(C)n2)nc(=O)c(C(=O)N2CCC(c3ccc(F)cn3)C2)c1O` (single isomer, unassigned) [Example 199], the negative-log EC50 (pEC50) is 8.00 to 11.00. Consider `CC[C@@H](c1cc(F)cc(F)c1)n1c(-c2ccn(C)n2)nc(=O)c(C(=O)N2CCC(c3cc(F)ccn3)C2)c1O` (single isomer, unassigned) [Example 200], for which the negative-log EC50 (pEC50) was 8.00 to 11.00. Turning to `CC[C@@H](c1cc(F)cc(F)c1)n1c(-c2ccn(C)n2)nc(=O)c(C(=O)N2CCC(c3ncccc3F)C2)c1O` (single isomer, unassigned) [Example 201], the pEC50 was 8.00 to 11.00.

With `CC[C@@H](c1cc(F)cc(F)c1)n1c(-c2ccn(CC)n2)nc(=O)c(C(=O)N2CCC(c3cc(F)ccn3)C2)c1O` (single isomer, unassigned) [Example 202], the pEC50 is 8.00 to 11.00.

Regarding `CC[C@@H](c1cc(F)cc(F)c1)n1c(-c2cnn(C)c2)nc(=O)c(C(=O)N2CCC(c3cc(F)ccn3)C2)c1O` (single isomer, unassigned) [Example 203], the pEC50 was 8.00 to 11.00. As for `CC[C@@H](c1cc(F)cc(F)c1)n1c(-c2nc(C)cs2)nc(=O)c(C(=O)N2CCC(c3ncccc3F)C2)c1O` (single isomer, unassigned) [Example 204], the negative logarithm of the EC50 (pEC50) was 8.00 to 11.00. With `CC[C@@H](c1cc(F)cc(F)c1)n1c(-c2nc(C)cs2)nc(=O)c(C(=O)N2CCC(c3cc(F)ccn3)C2)c1O` (single isomer, unassigned) [Example 205], the pEC50 is 8.00 to 11.00. In the case of `CC[C@@H](c1cc(F)cc(F)c1)n1c(-c2nc(C)cs2)nc(=O)c(C(=O)N2CCC(c3ccc(F)cn3)C2)c1O` (single isomer, unassigned) [Example 206], the pEC50 is 8.00 to 11.00. As to `CC[C@@H](c1cc(F)cc(F)c1)n1c(-c2nc(C)cs2)nc(=O)c(C(=O)N2CCC(c3ccccc3OC)C2)c1O` (single isomer, unassigned) [Example 207], the negative logarithm of the EC50 (pEC50) was 8.00 to 11.00. Regarding `CC[C@@H](c1cc(F)cc(F)c1)n1c(-c2nc(C)cs2)nc(=O)c(C(=O)N2CCC(c3ccccc3F)C2)c1O` (single isomer, unassigned) [Example 208], the negative-log EC50 (pEC50) is 8.00 to 11.00. As for `CC[C@@H](c1cc(F)cc(F)c1)n1c(-c2nc(C)cs2)nc(=O)c(C(=O)N2CCC(c3ccc(Cl)cn3)C2)c1O` (single isomer, unassigned) [Example 209], the figure is 8.00 to 11.00. As for `CC[C@@H](c1cc(F)cc(F)c1)n1c(-c2nc(C)cs2)nc(=O)c(C(=O)N2CCC(c3ncc(F)cc3F)C2)c1O` (single isomer, unassigned) [Example 210], the pEC50 was 8.00 to 11.00. Take `CC[C@@H](c1cc(F)cc(F)c1)n1c(-c2nc(C)cs2)nc(=O)c(C(=O)N2CCC(c3ccc(F)cc3)C2)c1O` (single isomer, unassigned) [Example 211]: the negative logarithm of the EC50 (pEC50) is 8.00 to 11.00. As for `CC[C@@H](c1cc(F)cc(F)c1)n1c(-c2ccn(CC)n2)nc(=O)c(C(=O)N2CCC(c3ncccc3F)C2)c1O` (single isomer, unassigned) [Example 212], the negative logarithm of the EC50 (pEC50) was 8.00 to 11.00. Consider `CC[C@@H](c1cc(F)cc(F)c1)n1c(-c2ccn(CC)n2)nc(=O)c(C(=O)N2CCC(c3ccc(Cl)cn3)C2)c1O` (single isomer, unassigned) [Example 213], for which the pEC50 is 8.00 to 11.00.

Turning to `CC[C@@H](c1cc(F)cc(F)c1)n1c(-c2ccn(CC)n2)nc(=O)c(C(=O)N2CCC(c3ncc(Cl)cc3F)C2)c1O` (single isomer, unassigned) [Example 214], the pEC50 was 8.00 to 11.00. As for `CC[C@@H](c1cc(F)cc(F)c1)n1c(-c2ccn(CC)n2)nc(=O)c(C(=O)N2CCC(c3ncc(F)cc3F)C2)c1O` (single isomer, unassigned) [Example 215], the negative logarithm of the EC50 (pEC50) is 8.00 to 11.00. As for `CC[C@@H](c1cc(F)cc(F)c1)n1c(-c2ccn(CC)n2)nc(=O)c(C(=O)N2CCC(c3ccc(F)cn3)C2)c1O` (single isomer, unassigned) [Example 216], the figure is 8.00 to 11.00; as for `CC[C@@H](c1cc(F)cc(F)c1)n1c(-c2cnn(C)c2)nc(=O)c(C(=O)N2CCC(c3ncc(F)cc3F)C2)c1O` (single isomer, unassigned) [Example 217], 8.00 to 11.00.
